Laboratory results from ChEMBL document CHEMBL6121012, “Chemical Basis of the Traditional Ayurvedic Detoxification Process of the Toxic Medicinal Plant Plumbago zeylanica” (J Nat Prod, 2025).

Assay: Cytotoxicity against human HepG2 cells assessed as reduction in cell viability incubated for 24 hrs by MTT assay
Format: toxicity, cell-based
`C[C@@H]1CC(=O)c2c(O)cccc2[C@@H]1O` gave an IC50 at 24 h of 3000 µM.
`C[C@@H]1CC(=O)c2c(O)cccc2[C@H]1O` gave an IC50 at 24 h of 1000 µM.
Work on `CC1=CC(=O)c2c(O)cccc2C1=O` [PLUMBAGIN] yielded an IC50 at 24 h of 14 µM.
